Assay results reported in ChEMBL document CHEMBL1143011, “NMR screening applied to the fragment-based generation of inhibitors of creatine kinase exploiting a new interaction proximate to the ATP binding site” (J Med Chem, 2007).

Assays:
[1] = target: Creatine kinase M-type (Oryctolagus cuniculus) (UniProt P00563); experiment: Inhibition of rabbit muscle creatine kinase at 27.5 uM in presence of 400 uM MgATP
Creatine kinase M-type [2] = target: T1, Creatine kinase M-type (Oryctolagus cuniculus, UniProt P00563); experiment: Inhibition of rabbit muscle creatine kinase-MgATP complex by pH-stat assay
Creatine kinase M-type [3] = target: T1, Creatine kinase M-type; experiment: Inhibition of rabbit muscle creatine kinase by pH-stat assay

T1 sequence (P00563 whole entry): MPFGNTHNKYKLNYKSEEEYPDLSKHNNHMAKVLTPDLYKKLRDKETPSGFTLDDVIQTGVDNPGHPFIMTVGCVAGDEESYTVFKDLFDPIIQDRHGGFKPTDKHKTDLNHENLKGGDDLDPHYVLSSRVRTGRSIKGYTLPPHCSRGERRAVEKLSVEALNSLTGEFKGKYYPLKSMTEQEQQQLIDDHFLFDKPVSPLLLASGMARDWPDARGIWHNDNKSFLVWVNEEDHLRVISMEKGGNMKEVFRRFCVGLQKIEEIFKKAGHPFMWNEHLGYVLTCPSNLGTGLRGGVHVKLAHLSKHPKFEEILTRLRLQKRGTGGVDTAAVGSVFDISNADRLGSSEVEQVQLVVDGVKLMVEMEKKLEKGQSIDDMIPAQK
Sequence of Creatine kinase M-type (Oryctolagus cuniculus) (P00563 whole entry): as above

inhibition [1] | Ki (Creatine kinase M-type [2]) | IC50 (Creatine kinase M-type [3]) | Ki (Creatine kinase M-type [3]) | SMILES
20% | – | – | – | O=C(NCc1ccccc1)c1ccc(-c2ccc(C(=O)O)o2)cc1
35% | 70 µM | 50 µM | 25 µM | O=C(Nc1ccc(C(=O)c2ccccc2)cc1)c1ccc(-c2ccc(C(=O)O)o2)cc1
63% | – | – | – | O=C(c1ccccc1)c1ccc(-c2ccc(-c3ccc(C(=O)O)o3)cc2)cc1
63% | – | – | – | O=C(NCc1ccc(-c2ccccc2)cc1)c1ccc(-c2ccc(C(=O)O)o2)cc1
